In patent US7671040B2, “Chemotherapeutic antineoplastic treatment” (Laboratoires Goemar S.A., priority 2003, dated 2010):
Where “and” joins values, the source holds several entries; their conditions need not be identical. Equal entries are not always repeated. Where two headings read alike, the source gives them in different places.

Assays:
[1] = system: cells in peripheral blood; settings: for Number of cells, peripheral blood, average: average of group; for Number of cells, peripheral blood, individual mice: single mice
Source text: The injection was an intraperitoneally injection.
The peripheral blood of the mice of the first and the second groups of mice under experimentation according to a) was used to determine the total number of all cells on day 0 and then on each of the following days until day 10 on several mice selected from each of the first and the second groups.
The number of cells in peripheral blood has been evaluated as hereafter disclosed.

[2] = system: cells in bone marrow; settings: for Number of cells, bone marrow, average: average of group; for Number of cells, bone marrow, individual mice: single mice
Method: A first group and a second group comprising each 50 mice of the Balb/c type were tested.
On day 0 and then each day after day 0, during 10 days, the total number of cells per ml in bone marrow was determined on several mice of each of both first and second groups.
The number of cells in bone marrow was evaluated as hereafter disclosed. The mice were killed by cervical dislocation, placed on their back on cutting board and soaked with ethanol. A long traverse cut through the skin in the middle of the abdominal area was followed by reflecting the skin from the hindquarters and the hind legs. The legs were separated from the body at the hip joint and the feet were removed. The legs were placed in a Petri dish obtaining RPMI 1640 medium (Sigma). All muscle tissue from the femurs and tibia was removed and the bones were separated (only femurs were used). The epiphyses were cut off on both ends, the bone end was punctured with a 23 G needle and flushed out with 3 ml of warm (22° C.) RPMI 1640 medium. The large debris and cell clumps were removed by layering the cell suspension over 3 ml of heat-inactivated fetal calf serum (FCS; Hyclone, Logan, Utah, USA) for 10 minutes on ice. The cells collected from the top of FCS were washed once by centrifugation at 300×g for 10 minutes at 4° C. and kept in RMPI 1640 medium containing 5% FCS. Five microliters of the cell suspension was mixed with 95 ul of Turk's solution (a mixture of 3 ml concentrated acetic acid, 3 ml of 1% crystal violet in water, Fernandez-Botran and Vetvicka “Methods in Cellular Immunology”, CRC Press, Boca Raton, 1995), and incubated for 5 minutes at room temperature. One drop of this solution has been dropped into a hemocytometer and the cells were counted under an optical microscope.
The result of the counting is expressed in number of cells per femur×10^6.

O=P1(N(CCCl)CCCl)NCCCO1 (stereo not drawn) [cyclophosphamide] was tested, and the “Number of cells, peripheral blood, average” value ([1]; day 1) was 3.6 per ml × 10^5, the “Number of cells, peripheral blood, average” value ([1]; day 2) was 3.6 per ml × 10^5 and the “Number of cells, peripheral blood, individual mice” value ([1]; day 2) was 6.6 per ml × 10^5 and 6.0 per ml × 10^5 and 6.3 per ml × 10^5. The “Number of cells, peripheral blood, average” value ([1]; day 3) was 4.2 per ml × 10^5, the “Number of cells, peripheral blood, individual mice” value ([1]; day 3) was 3.8 per ml × 10^5 (2×) and 5.1 per ml × 10^5 and the “Number of cells, peripheral blood, average” value ([1]; day 4) was 5.1 per ml × 10^5. For the same compound, the “Number of cells, peripheral blood, average” value ([1]; day 5) was 7.2 per ml × 10^5, the “Number of cells, peripheral blood, individual mice” value ([1]; day 5) was 4.0 per ml × 10^5 and 9.6 per ml × 10^5 and 8.1 per ml × 10^5 and the “Number of cells, peripheral blood, average” value ([1]; day 6) was 6.5 per ml × 10^5. The “Number of cells, peripheral blood, individual mice” value ([1]; day 6) was 7.8 per ml × 10^5 and 5.0 per ml × 10^5 and 6.7 per ml × 10^5, the “Number of cells, peripheral blood, average” value ([1]; day 7) was 6.4 per ml × 10^5 and the “Number of cells, peripheral blood, individual mice” value ([1]; day 7) was 3.8 per ml × 10^5 and 7.3 per ml × 10^5 and 8.1 per ml × 10^5. For the same compound, the “Number of cells, peripheral blood, average” value ([1]; day 8) was 7.2 per ml × 10^5, the “Number of cells, peripheral blood, individual mice” value ([1]; day 8) was 4.1 per ml × 10^5 and 8.2 per ml × 10^5 and 9.3 per ml × 10^5 and the “Number of cells, peripheral blood, average” value ([1]; day 9) was 11.2 per ml × 10^5. For the same compound, the “Number of cells, peripheral blood, individual mice” value ([1]; day 9) was 8.9 per ml × 10^5 and 11.9 per ml × 10^5 and 12.9 per ml × 10^5, the “Number of cells, peripheral blood, average” value ([1]; day 10) was 29.2 per ml × 10^5 and the “Number of cells, peripheral blood, individual mice” value ([1]; day 10) was 23.8 per ml × 10^5 and 27.8 per ml × 10^5 and 35.9 per ml × 10^5. The “Number of cells, bone marrow, average” value ([2]; day 1) was 1.25 per femur × 10^6, the “Number of cells, bone marrow, individual mice” value ([2]; day 1 after i.p. injection) was 1 per femur × 10^6 and 1.2 per femur × 10^6 and 1.4 per femur × 10^6 (2×) and the “Number of cells, bone marrow, average” value ([2]; day 2) was 1.25 per femur × 10^6. The “Number of cells, bone marrow, individual mice” value ([2]; day 2) was 0.8 per femur × 10^6 and 2.0 per femur × 10^6 and 2.4 per femur × 10^6, the “Number of cells, bone marrow, average” value ([2]; day 3) was 3.6 per femur × 10^6 and the “Number of cells, bone marrow, average” value ([2]; day 4) was 2.7 per femur × 10^6. The “Number of cells, bone marrow, average” value ([2]; day 5) was 4.7 per femur × 10^6, the “Number of cells, bone marrow, individual mice” value ([2]; day 5) was 2.1 per femur × 10^6 and 6.0 per femur × 10^6 and 6.1 per femur × 10^6 and the “Number of cells, bone marrow, average” value ([2]; day 6) was 6.4 per femur × 10^6. For the same compound, the “Number of cells, bone marrow, individual mice” value ([2]; day 6) was 6.5 per femur × 10^6 and 5.7 per femur × 10^6 and 7.0 per femur × 10^6, the “Number of cells, bone marrow, average” value ([2]; day 7) was 8.1 per femur × 10^6 and the “Number of cells, bone marrow, individual mice” value ([2]; day 7) was 9.0 per femur × 10^6 and 8.1 per femur × 10^6 and 7.3 per femur × 10^6. For the same compound, the “Number of cells, bone marrow, average” value ([2]; day 8) was 6.3 per femur × 10^6, the “Number of cells, bone marrow, individual mice” value ([2]; day 8) was 6.0 per femur × 10^6 and 6.2 per femur × 10^6 and 6.8 per femur × 10^6 and the “Number of cells, bone marrow, average” value ([2]; day 9) was 8.2 per femur × 10^6. The “Number of cells, bone marrow, individual mice” value ([2]; day 9) was 8.0 per femur × 10^6 and 8.5 per femur × 10^6 and 8.2 per femur × 10^6, the “Number of cells, bone marrow, average” value ([2]; day 10) was 9.4 per femur × 10^6 and the “Number of cells, bone marrow, individual mice” value ([2]; day 10) was 7.2 per femur × 10^6 and 10.8 per femur × 10^6 and 10.3 per femur × 10^6.
